In one data set the target is T1, human PF4 (Homo sapiens, UniProt P02776).
T1 construct: PF4 is a 70 amino acid, lysine-rich 7.8 kDa platelet-specific protein; made in house; host or cells: Escherichia coli BL21DE3 pLysS (pT7-7) and/or Drosophila S2 cells
T1 sequence (P02776 32-101): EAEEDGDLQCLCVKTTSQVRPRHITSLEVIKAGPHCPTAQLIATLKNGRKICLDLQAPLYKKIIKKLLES
Briefly: Inhibition of PF4 tetramer formation (BS3 cross-linking, SDS-PAGE). The data set is classed as biochemical. The settings on record: for IC50: read-out: IC50 of PF4 tetramer formation inhibition; for inhibition at 5 µM: 5 μM inhibitor; for inhibition at 5 µM / inhibition at 10 µM / inhibition at 1 µM / inhibition at 3 µM: read-out: % inhibition of PF4 tetramer formation at single concentration of inhibitor; for inhibition at 10 µM: 10 μM inhibitor (column A); for inhibition at 1 µM: 1 μM inhibitor; for inhibition at 3 µM: 3 μM inhibitor (column A). The essentials: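 Monomer, dimer, trimer and tetramer fractions were quantified by densitometry after reducing 12% SDS-PAGE of BS3-cross-linked (0.2 mM, 30 min, room temperature) PF4. Before cross-linking, 10 μg/ml E. coli-expressed human WT PF4 in PBS was exposed to compound for 15 min at 37° C or 60 min at room temperature; controls lacked compound.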

Data set [1] is described as follows: Human microsome stability. The data set is classed as in vitro ADME. The settings on record: for half-life at 0.5 μM: read-out: Human microsome stability Half life t1/2. The text has this: (§1) Certain exemplified compounds were examined for ADMET (absorption, distribution, metabolism, excretion and toxicity) profiling using conventional assays with the results shown in the Tables 3A-3C below.

Data set [2] is described as follows: Mouse microsome stability. The settings on record: for half-life at 0.5 μM: Mouse microsomes, compound conc = 0.5 μM, n = 1, read-out: Mouse microsome stability Half life t1/2. In kind it is in vitro ADME.
From the text: as §1

For another data set, the system named is human platelets. Put plainly: PF4-KKO induced platelet activation, P-selectin, human platelets. The data set is classed as cell-based. The settings on record: human platelet activation assays; 20 μM and 40 μM (FIGS. 8 and 9).
The subject of data set [3] is FcγRIIA transgenic murine platelets. Briefly: PF4-KKO induced platelet activation, P-selectin, FcγRIIA transgenic murine platelets. The data set is classed as cell-based, mouse. The settings on record: for normalized P-selectin levels: FIG. 22; for preventing P-selectin expression: FcγRIIA transgenic murine platelets, 50 μM compound, 37.5 μg/ml PF4, 50 μg/ml KKO (FIGS. 14-21). Here is the method:
Whole blood was diluted with 1× Tyrode buffer (5 mM N-2-hydroxyethylpiperazine-N′-2-ethanesulfonic acid, 0.1% BSA, 134 mM NaCl, 0.3 mM NaH2PO4, 3 mM KCl, 2 mM MgCl2, 12 mM NaHCO3, 5 mM glucose) with 0.02 U/ml apyrase and 1 μM PGE1 and centrifuged at 100 g for 10 min. Platelet rich plasma (PRP) was carefully removed and centrifuged at 1000 g for 5 min. Platelet pellet was resuspended in Tyrode buffer with 0.02 U/ml apyrase at 2×10^8/ml concentration at 37° C. PF4 antagonists are diluted in Tyrode buffer, and are incubated with 10 μg/ml human PF4 purified protein at room temperature for 30 min. The PF4-drug complex is then incubated with 1×10^8/ml platelets with 1 mM CaCl2, 0.1% BSA at 37° C. for 10 min. 40 μg/ml KKO and 10 μg/ml anti-CD62P (P-selectin) antibodies are added into the reaction. One milliliter ice-cold PBS is added to each reaction after 5 min of incubation. Labelled platelets are then analyzed by a BD Accuri C6 flow cytometer. The results are represented by both the mean fluorescence intensity and by the percentage of positive platelets.
37.5 μg/ml PF4 with/without 50 μM of the exemplified compound incubated with 3×10^7/ml platelets; 50 μg/ml KKO.

[4] abbreviates: Human microsomes, compound conc = 0.5 μM, n = 1.

Entries after “also recorded” stand apart in the source; their conditions may differ.

In general, IC50 refers to the concentration at which inhibition is half-maximal.

Regarding `CC(=O)C1C(=O)c2ccc(C(c3ccc4c(c3)C(=O)C(C(C)=O)C4=O)(C(F)(F)F)C(F)(F)F)cc2C1=O` (stereo not drawn) [Example 11, 2-acetyl-5-[(2-acetyl-2,3-dihydro-1,3dioxo-1h-inden-5-yl)-1,1,1,3,3,3-hexafluoropropan-2-yl]-2,3-dihydro-1,3-dioxo-1h-indene], on human PF4, the IC50 was 1450 nM. The half-life at 0.5 μM in data set [1] (setting [4]) is above 3 h; in data set [2] it was 1.75 h. The “PF4-KKO induced platelet activation using P-selectin as a marker” value in the data set on human platelets is listed as “inhibitory”.

On to `O=C(c1ccc2c(c1)C(=O)C(C(=O)NCCc1ccc3c(c1)OCO3)C2=O)c1ccc2c(c1)C(=O)C(C(=O)NCCc1ccc3c(c1)OCO3)C2=O` (stereo not drawn) [Example 18, 5,5′-carbonylbis(1,3-dioxo-indan-2-carboxylic acid (2-benzo[1,3]dioxol-5-yl-ethyl)-amide)], for which, at human PF4, the inhibition at 5 µM came to 65%, the inhibition at 10 µM was 75% and the IC50 turned out to be 1810 nM. Also, the “PF4-KKO induced platelet activation using P-selectin as a marker” value in the data set with human platelets is given as “inhibitory”.

For `O=C(c1ccc2c(c1)C(=O)C(C(=O)NCCc1ccccc1)C2=O)c1ccc2c(c1)C(=O)C(C(=O)NCCc1ccccc1)C2=O` (stereo not drawn) [Example 20, 5,5′-carbonylbis(1,3-dioxo-indan-2-carboxylic acid (2-phenylethyl)-amide)], at human PF4, the inhibition at 5 µM is 83%, the inhibition at 10 µM came to 92% and the concentration for half-maximal inhibition (IC50) turned out to be 5750 nM. Also, the half-life at 0.5 μM in data set [1] (setting [4]) is above 2.42 h. Also, the microsomal CLint at 0.5 μM in data set [1] (Human microsomes, compound conc = 0.5 μM, n = 1, read-out: Human microsome stability Intrinsic Clearance Clint (ml/min/mg protein)) is below 9.5 mL/min/mg. In data set [1] (human microsomes), the “intrinsic clearance in human microsome assay” value is reported as “low intrinsic clearance” and the “stability in human microsome assay” value is “excellent stability”. Further, the half-life at 0.5 μM in data set [2] is above 2.42 h. In data set [2] (mouse microsomes), the “intrinsic clearance in mouse microsome assay” value is “low intrinsic clearance” and the “stability in mouse microsome assay” value is listed as “excellent stability”.

In the case of `O=C(c1ccc2c(c1)C(=O)C(C(=O)Nc1ccc3c(c1)OCCO3)C2=O)c1ccc2c(c1)C(=O)C(C(=O)Nc1ccc3c(c1)OCCO3)C2=O` (stereo not drawn) [Example 29, 5,5′-carbonylbis(1,3-dioxo-indan-2-carboxylic acid (n-(2,3-dihydro-benzo[1,4]dioxin-6-yl))-amide)], the IC50 at human PF4 worked out at 3020 nM. Further, the “PF4-KKO induced platelet activation using P-selectin as a marker” value in the data set with human platelets is given as “inhibitory”. Moreover, in data set [3], the “normalized P-selectin levels” value is listed as “modulate the activity of normalized P-selectin; also recorded: inhibition” and the “preventing P-selectin expression” value is “efficacy”.

`COc1ccc(NC(=O)C2C(=O)c3ccc(C(=O)c4ccc5c(c4)C(=O)C(C(=O)Nc4ccc(OC)cc4)C5=O)cc3C2=O)cc1` (stereo not drawn) [Example 31, 5,5′-carbonylbis(1,3-dioxo-indan-2-carboxylic acid (4-methoxyphenyl)-amide)]: the half-inhibitory concentration (IC50) on human PF4 was 1740 nM. Also, in the data set on human platelets, the “PF4-KKO induced platelet activation using P-selectin as a marker” value is listed as “inhibitory”. In data set [3], the “normalized P-selectin levels” value is “modulate the activity of normalized P-selectin; also recorded: inhibition” and the “preventing P-selectin expression” value was “efficacy”.

For the compound `O=C(NCCc1ccccc1)C1C(=O)c2ccc(S(=O)(=O)c3ccc4c(c3)C(=O)C(C(=O)NCCc3ccccc3)C4=O)cc2C1=O` (stereo not drawn) [Example 33, 5,5′-sulphonylbis(1,3-dioxo-indan-2-carboxylic acid (2-phenylethyl)-amide)], at human PF4, the inhibition at 5 µM stood at 67%, the inhibition at 10 µM is 76% and the IC50 was determined as 1600 nM. In addition, the “PF4-KKO induced platelet activation using P-selectin as a marker” value in the data set on human platelets is given as “inhibitory”. For the same compound, in data set [3], the “normalized P-selectin levels” value is reported as “inhibition” and the “preventing P-selectin expression” value is “efficacy”.

`COc1cccc(NC(=O)C2C(=O)c3ccc(S(=O)(=O)c4ccc5c(c4)C(=O)C(C(=O)Nc4cccc(OC)c4)C5=O)cc3C2=O)c1` (stereo not drawn) [Example 36, 5,5′-sulphonylbis(1,3-dioxo-indan-2-carboxylic acid (3-methoxyphenyl)-amide)]: at human PF4, the inhibition at 5 µM amounted to 65%, the inhibition at 10 µM came to 70% and the IC50 amounted to 1190 nM. In data set [3], the “normalized P-selectin levels” value was “modulate the activity of normalized P-selectin; also recorded: inhibition” and the “preventing P-selectin expression” value is listed as “efficacy”.

Turning to `CC(=O)OC[C@H]1O[C@@H](OC(C)=O)[C@H](NC(=O)C2C(=O)c3ccc(Oc4ccc5c(c4)C(=O)C(C(=O)N[C@H]4[C@H](OC(C)=O)O[C@H](COC(C)=O)[C@@H](OC(C)=O)[C@@H]4OC(C)=O)C5=O)cc3C2=O)[C@@H](OC(C)=O)[C@@H]1OC(C)=O` (stereo partly drawn) [Example 399, [(2R,3S,4R,5R,6S)-3,4,6-tris(acetyloxy)-5-{5-[(1,3-dioxo-2-{[(2S,3R,4R,5S,6R)-2,4,5-tris(acetyloxy)-6-[(acetyloxy)methyl]oxan-3-yl]carbamoyl}-2,3-dihydro-1H-inden-5-yl)oxy]-1,3-dioxo-2,3-dihydro-1H-indene-2-amido}oxan-2-yl]methyl acetate], at human PF4, the inhibition at 1 µM is 21% and the inhibition at 3 µM was 28%.

For the compound `CC(=O)OC[C@H]1O[C@@H](OC(C)=O)[C@H](NC(=O)C2C(=O)c3ccc(S(=O)(=O)c4ccc5c(c4)C(=O)C(C(=O)N[C@H]4[C@H](OC(C)=O)O[C@H](COC(C)=O)[C@@H](OC(C)=O)[C@@H]4OC(C)=O)C5=O)cc3C2=O)[C@@H](OC(C)=O)[C@@H]1OC(C)=O` (stereo partly drawn) [Example 400, [(2R,3S,4R,5R,6S)-3,4,6-tris(acetyloxy)-5-{5-[(1,3-dioxo-2-{[(2S,3R,4R,5S,6R)-2,4,5-tris(acetyloxy)-6-[(acetyloxy)methyl]oxan-3-yl]carbamoyl}-2,3-dihydro-1H-inden-5-yl)sulfonyl]-1,3-dioxo-2,3-dihydro-1H-indene-2-amido}oxan-2-yl]methyl acetate], at human PF4, the inhibition at 1 µM turned out to be 17% and the inhibition at 3 µM is 21%.

Consider `O=C(c1ccc2c(c1)C(=O)C(C(=O)C1CC1)C2=O)c1ccc2c(c1)C(=O)C(C(=O)C1CC1)C2=O` (stereo not drawn) [Example 401], for which, on human PF4, the inhibition at 1 µM stood at 22% and the inhibition at 3 µM was 23%.

`O=C1c2ccc(S(=O)(=O)c3ccc4c(c3)C(=O)C(C(=O)C3CC3)C4=O)cc2C(=O)C1C(=O)C1CC1` (stereo not drawn) [Example 402, 2-cyclopropanecarbonyl-5-[(2-cyclopropanecarbonyl-1,3-dioxo-2,3-dihydro-1H-inden-5-yl)sulfonyl]-2,3-dihydro-1H-indene-1,3-dione]: on human PF4, the inhibition at 1 µM came out at 24% and the inhibition at 3 µM was 28%.

Turning to `CCOC(=O)CC(=O)C1C(=O)c2ccc(S(=O)(=O)c3ccc4c(c3)C(=O)C(C(=O)CC(=O)OCC)C4=O)cc2C1=O` (stereo not drawn) [Example 403, ethyl 3-(5-{[2-(3-ethoxy-3-oxopropanoyl)-1,3-dioxo-2,3-dihydro-1H-inden-5-yl]sulfonyl}-1,3-dioxo-2,3-dihydro-1H-inden-2-yl)-3-oxopropanoate], on human PF4, the inhibition at 1 µM worked out at 22% and the inhibition at 3 µM turned out to be 23%.

Consider `O=C(O)CC(=O)C1C(=O)c2ccc(S(=O)(=O)c3ccc4c(c3)C(=O)C(C(=O)CC(=O)O)C4=O)cc2C1=O` (stereo not drawn) [Example 404, 3-(5-{[2-(2-carboxyacetyl)-1,3-dioxo-2,3-dihydro-1H-inden-5-yl]sulfonyl}-1,3-dioxo-2,3-dihydro-1H-inden-2-yl)-3-oxopropanoic acid], for which, at human PF4, the inhibition at 1 µM is 24% and the inhibition at 3 µM came to 28%.

`Cc1ncc2n1-c1ccc(Cl)cc1C(c1ccccc1F)=NC2` [Midazolam, midazolam, reference compound]: in data set [1] (setting [4]), the “Human microsome stability Half life t1/2” value is listed as 4 min. In addition, the half-life at 0.5 μM in data set [2] is 0.0883 h.

Values taken from patent publication US20250281424A1 (New York Blood Center, Inc, priority 2020, published 2025).
